A word on the melting point: it is the temperature, or range, at which the solid turns liquid.

Experimental findings from patent publication US8394787B2, “7-aza-spiro[3.5]nonane-7-carboxylate derivatives, preparation thereof and therapeutic use thereof” (Sanofi, priority 2009, dated 2013) are described below.

The target of data set [1] is T1, enzyme FAAH (Fatty Acid Amide Hydrolase) (Mus musculus, UniProt O08914).
T1 construct: The membrane homogenates are prepared extemporaneously by homogenizing the tissues; from tissue; host or cells: mouse brain (minus the cerebellum), homogenate
T1 sequence (O08914 1-579): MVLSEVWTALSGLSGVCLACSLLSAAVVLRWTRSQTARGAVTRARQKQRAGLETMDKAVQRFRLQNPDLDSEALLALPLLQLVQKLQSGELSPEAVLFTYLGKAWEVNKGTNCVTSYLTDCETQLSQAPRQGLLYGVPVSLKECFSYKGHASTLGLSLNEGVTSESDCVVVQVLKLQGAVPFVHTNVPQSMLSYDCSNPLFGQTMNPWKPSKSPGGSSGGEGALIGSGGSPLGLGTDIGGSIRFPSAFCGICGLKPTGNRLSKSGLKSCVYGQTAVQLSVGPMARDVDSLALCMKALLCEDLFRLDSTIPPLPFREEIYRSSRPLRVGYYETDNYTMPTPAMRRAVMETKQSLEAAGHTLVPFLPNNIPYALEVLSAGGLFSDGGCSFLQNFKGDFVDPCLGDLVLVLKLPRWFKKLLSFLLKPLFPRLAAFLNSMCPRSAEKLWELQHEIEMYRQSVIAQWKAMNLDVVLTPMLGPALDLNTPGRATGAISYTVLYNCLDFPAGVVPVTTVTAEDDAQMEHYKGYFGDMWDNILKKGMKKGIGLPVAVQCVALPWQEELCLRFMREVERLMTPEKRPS
As to the kind of experiment: FAAH radio-enzymatic test, hydrolysis of [1-3H ethanolamine] anandamide (protocol 1). The conditions noted are these: mouse brain membrane homogenate, anandamide 10 μM, 20 mins preincubation at 25° C., read-out: IC50 (concentration inhibiting 50% of the control enzymatic activity of FAAH). The data set is classed as biochemical. The procedure:
(§1) The compounds of the invention were subjected to pharmacological tests to determine their inhibitory effect on the enzyme FAAH (Fatty Acid Amide Hydrolase).
Thus, mouse brains (minus the cerebellum) are removed and stored at −80° C. The membrane homogenates are prepared extemporaneously by homogenizing the tissues using a Precellys® machine in the reaction buffer (10 mM Tris-HCl, pH=8, 150 mM NaCl and 1 mM ethylenediaminetetraacetic acid (EDTA)). The enzymatic reaction is performed in 96-well Multiscreen filtration plates in a final volume of 70 μl. Reaction buffer supplemented with fatty acid-free bovine serum albumin (BSA, 1 mg/ml) is used for the enzymatic reaction and the dilution of the compounds and the [1-^3H ethanol-amine] anandamide. The reaction buffer containing BSA (43 μl/well), the diluted test compounds at different concentrations (7 μl/well containing 1% DMSO) and the membrane preparation (10 μl/well, i.e. 200 μg of tissue per test) are successively added to the wells. After preincubation of the compounds with the enzyme at 25° C. for 20 mins, the reaction is started by adding [1-^3H ethanolamine] anandamide. (Specific activity 15-20 Ci/mmol) diluted with cold anandamide (10 μl/well, final concentration 10 μM, 0.01 μCi per test). After incubation for 20 mins at 25° C., the enzymatic reaction is stopped by addition of a […] solution of active charcoal prepared in 1.5M NaCl and 0.5M HCl buffer (50 μl/well). The mixture is stirred for 10 mins and the aqueous phase containing the [1-^3H]ethanolamine is then recovered by filtration under vacuum and counted by liquid scintillation.

For data set [2], the target named is T1, enzyme FAAH (Fatty Acid Amide Hydrolase). As to the kind of experiment: FAAH fluorescence enzymatic test, hydrolysis of AAMC (protocol 2). The data set is classed as biochemical. The following applies: mouse brain homogenate, AAMC 10 μM, 20 mins preincubation at 25° C., 40 mins at 37° C., read-out: IC50 (concentration inhibiting 50% of the control enzymatic activity of FAAH). The protocol:
as §1
Thus, mouse brains (minus the cerebellum) are removed and stored at −80° C. The brain homogenates are prepared extemporaneously by homogenizing the tissues using a Precellys® machine in the reaction buffer (10 mM Tris-HCl, pH=8, 150 mM NaCl and 1 mM ethylenediamine-tetraacetic acid (EDTA)). The enzymatic reaction is performed in black polystyrene 384-well plates in a final volume of 50 μl. Reaction buffer supplemented with fatty acid-free bovine serum albumin (BSA, 1 mg/ml) is used for the enzymatic reaction, dilution of the compounds and dilution of the AAMC. The reaction buffer containing BSA (25 μl/well), the diluted test compounds at different concentrations (5 μl/well containing 1% DMSO) and the membrane preparation (10 μl/well, i.e. 200 μg of tissue per test) are successively added to the wells. After preincubation of the compounds with the enzyme for 20 mins at 25° C., the reaction is started by addition of 10 μl of substrate per well (AAMC, final concentration 10 μM). After incubation for 40 mins at 37° C., the aminomethyl coumarin (AMC) produced is measured by fluorescent counting (Envision plate reader).

In data set [3] the test system is male OF1 mice. As to the kind of experiment: test of analgesia: PBQ-induced abdominal stretching. The data set is classed as in vivo, mouse. The following applies: 30 mg/kg p.o. at 120 mins before PBQ. The procedure:
The in vivo activity of the compounds of the invention was evaluated in a test of analgesia.
Thus, the intraperitoneal (i.p.) administration of PBQ (phenylbenzoquinone, 2 mg/kg in 0.9% sodium chloride solution containing 5% ethanol) to male OF1 mice weighing 25 to 30 g causes abdominal stretching, on average 30 torsions or contractions during the period of 5 to 15 mins after injection. The test compounds are administered orally (p.o.) or intraperitoneally (i.p.) suspended in Tween 80 at 0.5%, 60 mins or 120 mins before the administration of PBQ. Under these conditions, the most powerful compounds reduce by 35% to 80% the number of stretches induced by the PBQ, in a dosage range lying between 1 and 30 mg/kg. For example, compound 25 of Table 1 reduces by 50% the number of stretches induced by the PBQ, at a dose of 30 mg/kg p.o. at 120 mins.

As for `CNC(=O)c1cc(COC(=O)N2CCC3(CC(Oc4ccc(-c5ccc(F)cc5)cc4)C3)C2)on1` (single isomer, unassigned) [Compound 33, 3-methylcarbamoyl-isoxazol-5-ylmethyl 2-(4′-fluorobiphenyl-4-yloxy)-6-aza-spiro[3.4]octane-6-carboxylate], the melting point lay in the range of 150 to 152 °C. In addition, the IC50 in data set [1] worked out at 19 nM.

For `CNC(=O)c1cc(COC(=O)N2CCC3(CC2)CC(Oc2cccc(-c4ccc(F)cc4)c2)C3)on1` [Compound 7, 3-methylcarbamoyl-isoxazol-5-ylmethyl 2-(4′-fluorobiphenyl-3-yloxy)-7-aza-spiro[3.5]nonane-7-carboxylate], in data set [1], the IC50 was found to be 19 nM.

In turn, `CNC(=O)c1cc(COC(=O)N2CCC3(CC(Oc4ccc(-c5ccc(F)cc5)cc4)C3)C2)on1` (single isomer, unassigned) [Compound 29, 3-methylcarbamoyl-isoxazol-5-ylmethyl 2-(4′-fluorobiphenyl-4-yloxy)-6-aza-spiro[3.4]octane-6-carboxylate] gave a melting point of 135 to 137 °C. For the same compound, the IC50 in data set [1] came to 5.3 nM.

`CNC(=O)c1cc(COC(=O)N2CCC3(CC2)CC(Oc2ccc(-c4ccc(F)cc4)cc2)C3)on1` [Compound 19, 3-methylcarbamoyl-isoxazol-5-ylmethyl 2-(4′-fluorobiphenyl-4-yloxy)-7-aza-spiro[3.5]nonane-7-carboxylate] came in with a melting point of 174 to 176 °C. In data set [2], the IC50 stood at 1.7 nM.

`CNC(=O)c1cc(COC(=O)N2CCC3(CC(Oc4ccc(-c5ccc(F)cc5)cc4)C3)C2)on1` (single isomer, unassigned) [Compound 32, 3-methylcarbamoyl-isoxazol-5-ylmethyl 2-(4′-fluorobiphenyl-4-yloxy)-6-aza-spiro[3.4]octane-6-carboxylate] showed a melting point of 149 to 151 °C. For the same compound, the IC50 in data set [1] came out at 3 nM.

In turn, `CNC(=O)c1cc(COC(=O)N2CC3(CC(Oc4ccc(-c5ccc(F)cc5)cc4)C3)C2)on1` [Compound 25, 3-methylcarbamoyl-isoxazol-5-ylmethyl 6-(4′-fluorobiphenyl-4-yloxy)-2-aza-spiro[3.3]heptane-2-carboxylate] came in with a melting point of 163 to 165 °C. Besides, the IC50 in data set [2] worked out at 0.46 nM. In data set [3], the “reduction of the number of stretches induced by the PBQ” value is given as 50%.
